Patent US9422292B2, “Bromodomain inhibitors and uses thereof” (Constellation Pharmaceuticals, Inc., priority 2011, dated 2016)

Assays:
BRD4 (BD1) = biological target: T1, BRD4 (BD1) (Homo sapiens, UniProt O60885); assay: BRD4 AlphaLisa binding assay; conditions: BRD4 (BD1) 30 nM, biotinylated H4-tetraacetyl peptide 200 nM; read-out: BRD4 AlphaLisa
T1 construct: His; made in house
Description: A. IC50 Measurements for Inhibitors Using BRD4 AlphaLisa Binding Assay.
Specifically, in a 384 well ProxiPlate BRD4 (BD1) (30 nM final) was combined with peptide (200 nM final) in 40 mM HEPES (pH 7.0), 40 mM NaCl, 1 mM DTT, 0.01% (w/v) BSA, and 0.008% (w/v) Brij-35 either in the presence of DMSO (final 1.2% DMSO) or compound dilution series in DMSO. After 20 minute incubation at room temperature Alpha streptavidin donor beads and AlphaLisa anti-Flag acceptor beads were added to a final concentration of 10 ug/mL each. After three hours equilibration plates were read on an Envision instrument and IC50s calculated using a four parameter non-linear curve fit.

[1] = tested on: MYC mRNA in MV4:11 (AML) cells; assay: cMyc RNA quantification assay (QuantiGene) in MV4:11 cells; type: cell-based; conditions: Homo sapiens, 4 h, QuantiGene 2.0
Description: B. cMyc RNA Quantification Assay (QuantiGene® Assay):
MV4:11 (AML) cells were seeded in a 96-well plate and incubated in the presence of various concentrations of compounds for 4 h. Relative mRNA levels were quantitated by using QuantiGene 2.0 assay (Affymetrix) according to the manufacturer's recommendation. Signals were detected by using an Envision plate reader (Perkin-Elmer). Biological duplicates were averaged and normalized to vehicle (DMSO) control to calculate percent MYC mRNA levels.

[2] = tested on: IL-6 secretion in THP-1 cells; assay: Cell-based IL-6 quantification assay (ELISA, Mesoscale) in LPS-treated THP-1 cells; conditions: Homo sapiens, LPS 4 μg/mL, 16 h, ELISA value/CellTiter-Glo ratio
Description: C. Cell-Based IL-6 Quantification Assay (ELISA, Mesoscale Assay):
100,000 THP-1 cells were seeded in RPMI1640-10% FBS in 96-well plates. LPS (E. Coli Invitrogen) in RPMI−10% FBS at a final concentration of 4 μg/mL was added to the wells and the cells are then incubated in the presence of various concentrations of compounds for 16 h. Plates are spun ([…], 5 min), an aliquot of 25 uL supernatant is transferred in to an ELISA plate (Mesoscale technology, MSD) and the detection of IL-6 is performed using manufacturer's instructions. The amount of cells in each well is assessed using CellTiter-Glo® (Promega). The ratio of ELISA value/CellTiter-Glo value is used to calculate the percent of inhibition of IL-6 secretion.

Compound | IC50 (BRD4 (BD1)) | IC50 [1] | IC50 [2]
Cc1nnc2n1-c1ccc(C(N)=O)cc1N(c1ccc(Cl)cc1)C[C@H]2C [Compound 41, 4-R-4H-[1,2,4]Triazolo[4,3-a][1,5]benzodiazepine,5,6-dihydro-1,4-dimethyl-8-carbamoyl-6-(4-chloro-phenyl)] | < 100 nM | < 100 nM | 100 to 1000 nM
Cc1nnc2n1-c1ccc(-c3cnn(C)c3)cc1N(c1ccc(Cl)cc1)C[C@H]2C [Compound 43, (R)-(4H-[1,2,4]triazolo[4,3-a][1,5]benzodiazepine,5,6-dihydro-1,4-dimethyl-8-(1-methyl-1H-pyrazol-4-yl)-6-(4-chloro-phenyl))] | < 100 nM | < 100 nM | < 100 nM
Cc1nnc2n1-c1ccc(-c3ccc(C(=O)O)cc3)cc1N(c1ccc(Cl)cc1)CC2 [Compound 20, 4H-[1,2,4]triazolo[4,3-a][1,5]benzodiazepine,5,6-dihydro-1-methyl-8-(4-carboxy-phenyl)-6-(4-chloro-phenyl)] | < 100 nM | 100 to 1000 nM | 100 to 1000 nM
Cc1nnc2n1-c1ccc(-c3cnc(N)cn3)cc1N(c1ccc(Cl)cc1)C[C@H]2C [Compound 55, 4-R-4H-[1,2,4]triazolo[4,3-a][1,5]benzodiazepine,5,6-dihydro-1,4-dimethyl-8-(5-aminopyrazin-2-yl)-6-(4-chloro-phenyl)] | < 100 nM | < 100 nM | < 100 nM
Cc1nnc(-c2ccc3c(c2)N(c2ccc(Cl)cc2)C[C@@H](C)c2nnc(C)n2-3)o1 [Compound 49, 4-R-4H-[1,2,4]triazolo[4,3-a][1,5]benzodiazepine,5,6-dihydro-1,4-dimethyl-8-(5-methyl-1,3,4-oxadiazol-2-yl)-6-(4-chloro-phenyl)] | < 100 nM | < 100 nM | < 100 nM
Cc1nnc2n1-c1ccc(C(=O)N3CCCC3)cc1N(c1ccc(Cl)cc1)C[C@H]2C [Compound 53, 4-R-4H-[1,2,4]triazolo[4,3-a][1,5]benzodiazepine,5,6-dihydro-1,4-dimethyl-8-(pyrrolidine-1-carbonyl)-6-(4-chloro-phenyl)] | 100 to 1000 nM | 1000 to 10000 nM | 100 to 1000 nM

The next lines start with the values.

IC50 (BRD4 (BD1)) | IC50 [1] | IC50 [2] | Compound
< 100 nM | < 100 nM | < 100 nM | Cc1ncn(-c2ccc3c(c2)N(c2ccc(Cl)cc2)C[C@@H](C)c2nnc(C)n2-3)n1 [Compound 66, (R)-6-(4-chlorophenyl)-1,4-dimethyl-8-(3-methyl-1H-1,2,4-triazol-1-yl)-5,6-dihydro-4H-benzo[b][1,2,4]triazolo[4,3-d][1,4]diazepine]
< 100 nM | 1000 to 10000 nM | 1000 to 10000 nM | Cc1nnc2n1-c1ccc(-c3ccc(=O)[nH]c3)cc1N(c1ccc(C#N)cc1)C[C@H]2C [Compound 68, (R)-4-(1,4-dimethyl-8-(6-oxo-1,6-dihydropyridin-3-yl)-4H-benzo[b][1,2,4]triazolo[4,3-d][1,4]diazepin-6(5H)-yl)benzonitrile]
100 to 1000 nM | 1000 to 10000 nM | 1000 to 10000 nM | Cc1nnc2n1-c1ccc(-c3ccc(N)nc3)cc1N(c1ccc(C(N)=O)cc1)CC2C (stereo in doubt) [Compound 69, (R)-4-(8-(6-aminopyridin-3-yl)-1,4-dimethyl-4H-benzo[b][1,2,4]triazolo[4,3-d][1,4]diazepin-6(5H)-yl)benzamide]
100 to 1000 nM | 100 to 1000 nM | > 1000 nM | Cc1nnc2n1-c1ccc(-c3ccc(=O)[nH]c3)cc1N(c1ccc(Cl)cn1)C[C@H]2C [Compound 82, (R)-5-(6-(5-chloropyridin-2-yl)-1,4-dimethyl-5,6-dihydro-4H-benzo[b][1,2,4]triazolo[4,3-d][1,4]diazepin-8-yl)pyridin-2(1H)-one]
100 to 1000 nM | 100 to 1000 nM | > 1000 nM | Cc1[nH]c(=O)ccc1-c1ccc2c(c1)N(c1ccc(Cl)cc1)C[C@@H](C)c1nnc(C)n1-2 [Compound 85, (R)-5-(6-(4-chlorophenyl)-1,4-dimethyl-5,6-dihydro-4H-benzo[b][1,2,4]triazolo[4,3-d][1,4]diazepin-8-yl)-6-methylpyridin-2(1H)-one]
